{"source": "patent US9426991B2", "about": "“Synergistic weed control from applications of aminocyclopyrachlor and picloram” (Dow AgroSciences LLC, priority 2012, dated 2016)", "tested_on": "broomweed (Sida acuta, SIDAC)", "test": "Field trial, post-emergence foliar application, weed control rating 0-100%", "assay_type": "in vivo", "conditions": "for Aminocyclopyrachlor Mean % weed control: 150 g ae/ha alone; for Picloram-Potassium Mean % weed control: 180 g ae/ha alone", "excerpt": "The (a) aminocyclopyrachloror an agriculturally acceptable salt or ester thereof is mixed with or applied in combination with (b) picloram or an agriculturally acceptable salt or ester thereof in an amount sufficient to induce a synergistic herbicidal effect. […] As described in the Herbicide Handbook of the Weed Science Society of America, Ninth Edition, 2007, p. 429, “‘synergism’ [is] an interaction of two or more factors such that the effect when combined is greater than the predicted effect based on the response to each factor applied separately.” Synergistic in the herbicide context can mean that the use of (a) and (b) as defined above results in an increased weed control effect compared to the weed control effects that are possible with the use of (a) or (b) alone. In some embodiments, the damage or injury to the undesired vegetation caused by the compositions and methods disclosed herein is evaluated using a scale from 0% to 100%, when compared with the untreated control vegetation, wherein 0% indicates no damage to the undesired vegetation and 100% indicates complete destruction of the undesired vegetation. […] 22 (1967)\nField trials were conducted with applications made to established grassland with naturally occurring weed populations. The target plants were treated with postemergence foliar applications when they were at the beginning of the flowering stage and 30 centimeters (11.8 inches) tall. All treatments were applied using a randomized complete block trial design, with four replications per treatment.\nTreatments consisted of aminocyclopyrachlor in acid form and picloram-potassium, each in water and applied alone or in combination. Spray solutions were prepared using an appropriate amount of dilution to form a 2.0-liter (L) aqueous spray solution with active ingredients in single and two-way combinations. Formulated compounds were applied to the plant material with a backpack sprayer equipped with 8003 nozzles calibrated to deliver 400 liters per hectare (L/ha) at a spray height of 18-20 in (45-51 cm) above average plant canopy.\nThe treated plant was broomweed (Sida acuta, SIDAC). The treated plots and control plots were rated blind at various intervals after application. Ratings were based on a scale of 0-100%, as discussed above, wherein 0% indicates no damage to the undesired vegetation and 100% indicates complete destruction of the undesired vegetation\nColby's equation was used to determine the herbicidal effects expected from the mixtures, as described above. The results were measured at 59 days, 75 days, and 88 days after the first application of the compositions. […] The herbicide tank mix combinations tested, application rates and ratios employed, plant species tested, and results are given below.", "data": [{"molecule": "Nc1nc(C2CC2)nc(C(=O)O)c1Cl", "note": "[Aminocyclopyrachlor, 6-amino-5-chloro-2-cyclopropylpyrimidine-4-carboxylic acid]", "values": [{"measurement": "Aminocyclopyrachlor Mean % weed control", "setting": "59 days after application", "value": 42.5, "unit": "%"}, {"measurement": "Aminocyclopyrachlor Mean % weed control", "setting": "75 days after application", "value": 36.3, "unit": "%"}, {"measurement": "Aminocyclopyrachlor Mean % weed control", "setting": "88 days after application", "value": 41.3, "unit": "%"}]}, {"molecule": "Nc1c(Cl)c(Cl)nc(C(=O)O)c1Cl", "note": "[Picloram-Potassium, 4-amino-3,5,6-trichloro-2-pyridinecarboxylic acid]", "values": [{"measurement": "Picloram-Potassium Mean % weed control", "setting": "59 days after application", "value": 6.3, "unit": "%"}, {"measurement": "Picloram-Potassium Mean % weed control", "setting": "75 days after application", "value": 3.8, "unit": "%"}, {"measurement": "Picloram-Potassium Mean % weed control", "setting": "88 days after application", "value": 5.5, "unit": "%"}]}]}
